Data published in ChEMBL document CHEMBL4609980, “Identification of antimalarial leads with dual falcipain-2 and falcipain-3 inhibitory activity” (Bioorg Med Chem, 2020).
Activity calls are given as the source filed them. No cut-off for these calls is given here.

What was measured:
[1] = biological target: T1, Falcipain 2 (Plasmodium falciparum) (UniProt Q9N6S8); assay: Inhibition of recombinant Plasmodium falciparum falcipain-2 expressed in bacterial expression system using ZFR-AMC as substrate at 100 uM measured for 30 mins by fluorimetric assay relative to control
T1 sequence (whole entry): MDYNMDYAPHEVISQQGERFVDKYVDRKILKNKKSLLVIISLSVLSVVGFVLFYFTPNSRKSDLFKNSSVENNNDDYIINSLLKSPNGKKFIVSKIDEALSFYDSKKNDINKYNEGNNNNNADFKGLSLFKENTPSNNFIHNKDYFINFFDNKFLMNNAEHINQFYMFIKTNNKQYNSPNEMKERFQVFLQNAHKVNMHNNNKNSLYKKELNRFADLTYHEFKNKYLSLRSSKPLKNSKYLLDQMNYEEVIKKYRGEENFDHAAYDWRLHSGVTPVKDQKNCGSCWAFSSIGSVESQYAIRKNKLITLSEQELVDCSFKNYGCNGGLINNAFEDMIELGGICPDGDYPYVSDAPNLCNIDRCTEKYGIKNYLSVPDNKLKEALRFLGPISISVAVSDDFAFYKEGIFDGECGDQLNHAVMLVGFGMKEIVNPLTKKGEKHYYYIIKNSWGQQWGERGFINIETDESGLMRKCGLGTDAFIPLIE

[2] = biological target: T2, Cysteine protease falcipain-3 (Plasmodium falciparum) (UniProt Q9NAW4); assay: Inhibition of recombinant Plasmodium falciparum falcipain-3 expressed in bacterial expression system using ZFR-AMC as substrate at 100 uM measured for 30 mins by fluorimetric assay relative to control
T2 sequence (whole entry): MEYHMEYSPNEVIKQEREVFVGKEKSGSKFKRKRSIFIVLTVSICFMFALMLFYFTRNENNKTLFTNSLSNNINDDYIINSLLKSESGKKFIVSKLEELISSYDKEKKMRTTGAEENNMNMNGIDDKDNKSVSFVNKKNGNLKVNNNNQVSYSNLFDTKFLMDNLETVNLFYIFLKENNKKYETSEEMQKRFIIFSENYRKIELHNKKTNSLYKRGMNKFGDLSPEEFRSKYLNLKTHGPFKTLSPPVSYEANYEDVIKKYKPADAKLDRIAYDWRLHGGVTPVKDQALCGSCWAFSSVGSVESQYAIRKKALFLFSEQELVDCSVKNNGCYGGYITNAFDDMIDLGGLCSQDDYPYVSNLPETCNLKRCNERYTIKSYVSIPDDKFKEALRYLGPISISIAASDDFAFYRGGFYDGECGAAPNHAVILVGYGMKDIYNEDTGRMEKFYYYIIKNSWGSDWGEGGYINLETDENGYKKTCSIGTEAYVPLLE

Plasmodium falciparum [3] = assay: Antimalarial activity against Plasmodium falciparum 3D7 infected in human erythrocytes assessed as food-vacoules abnormalities at 10 uM incubated for 54 hrs by giemsa staining based light microscopy; assay type: functional, organism-based
Plasmodium falciparum [4] = assay: Antimalarial activity against Plasmodium falciparum 3D7 infected in human erythrocytes assessed as morphological abnormalities at 10 uM incubated for 54 hrs by giemsa staining based light microscopy; assay type: functional, organism-based
[5] = biological target: T3, Cysteine protease falcipain-3 (Plasmodium falciparum, UniProt Q9NAW4); assay: Inhibition of recombinant Plasmodium falciparum falcipain-3 expressed in bacterial expression system using ZFR-AMC as substrate measured for 30 mins by fluorimetric assay
T3 sequence (Q9NAW4 whole entry): T2 sequence (whole entry)

Plasmodium falciparum [6] = assay: Antimalarial activity against Plasmodium falciparum 3D7 infected in human erythrocytes assessed as increase in arrest of ring stage at 100 uM incubated for 46 hrs by giemsa staining based light microscopy; assay type: functional, organism-based
Plasmodium falciparum [7] = assay: Antimalarial activity against Plasmodium falciparum 3D7 infected in human erythrocytes assessed as increase in arrest of ring stage at 100 uM measured after 46 hrs by giemsa staining based light microscopy; assay type: functional, organism-based
Falcipain 2 = biological target: T4, Falcipain 2 (Plasmodium falciparum, UniProt Q9N6S8); assay: Inhibition of recombinant Plasmodium falciparum falcipain-2 expressed in bacterial expression system using ZFR-AMC as substrate measured for 30 mins by fluorimetric assay
T4 sequence (Q9N6S8 whole entry): T1 sequence (whole entry)

Plasmodium falciparum [8] = assay: Antimalarial activity against Plasmodium falciparum 3D7 infected in human erythrocytes assessed as increase in arrest of ring stage at 100 uM incubated for 54 hrs by giemsa staining based light microscopy relative to control; assay type: functional

Compound | inhibition [1] | inhibition [2] | also measured
O=C(CN1CCC(c2ccccc2)C1)NC1CCC2(CC1)OCCO2 (stereo unspecified) | 22% | 69% | 
O=C(NCCCn1nc2n(c1=O)CCCC2)c1cc2c(cc1O)CCCC2 | 42% | 15% | 
O=C1C[C@H](C(=O)Nc2ccccc2)NC(N2CCN(Cc3ccccc3)CC2)=N1 | 44% | 17% | 
Cc1ccc(NCC(=O)NC2CC2)cc1S(=O)(=O)C1CCCCC1 | 19% | 6% | 
CCc1ccc(NC(=O)CN2CCN(c3nc4ccccc4s3)CC2)cc1 | 43% | 26% | 
CC(C)C[C@H](NC(=O)[C@H]1O[C@@H]1C(=O)O)C(=O)NCCCCN=C(N)N |  |  | Activity (Plasmodium falciparum [3]): Active; Activity (Plasmodium falciparum [4]): Active
Cc1ccc(NC(=O)CN2CCC[C@H](c3nc4ccccc4o3)C2)cc1C | 41% | 9% | 
O=C1CCc2cc(CNC(=O)Cn3ncc4ccccc4c3=O)ccc2C1 | 42% | 41% | 
CN1CCCc2cc(CCNC(=O)C(=O)Nc3ccc4c(c3)OCO4)ccc21 | 53% | 61% | IC50 [5]: 9.98 µM; Activity (Plasmodium falciparum [6]): Active; Activity (Plasmodium falciparum [7]): inactive; IC50 (Falcipain 2): 14.7 µM
O=C(CN1CCC(C2N=c3ccccc3=N2)CC1)Nc1cccc2ccccc12 | 47% | 49% | 
O=C(CNC(=O)N1CCN(Cc2ccccc2)CC1)NC1=CC2=CC=N[C@@H]2C=C1 | 39% | 15% | 
O=C1CN(CC(=O)NC2CCOc3ccccc32)CCN1 (stereo unspecified) | 25% | 25% | 
O=C(NCCCNC(=O)c1cc2ccccc2[nH]1)c1ccc(-c2ccccc2)cc1 | 51% | 62% | Activity (Plasmodium falciparum [8]): 100%; IC50 [5]: 8.56 µM; IC50 (Falcipain 2): 12.2 µM
O=C(Nc1ccc([C@@H]2C=c3ccccc3=N2)cc1)[C@@H]1CCCN1C1CCOCC1 | 46% | 50% | 
O=C(CCC1=CC(=O)C2C(=N1)SC1=C2CCCC1)NC1CCCCNC1=O (stereo unspecified) | 49% | 39% | 
Cc1cccc(O)c1OC1CCN(CC(=O)Nc2ccc(CN3CCOCC3)cc2)CC1 | 43% | 25% | 
O=C(CN1CCN(C2=NCCC=N2)CC1)Nc1cccc2ccccc12 | 19% | 21% | 
